Measured values published in ChEMBL document CHEMBL1201862, “PubChem BioAssay data set” (2004).
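Protocol summary: plate cells (96-well), add compound at 5 concentrations, incubate 48 h, interpolate endpoints linearly. Here, GI50 denotes the concentration required for 50% inhibition of growth.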 Active and inactive are the calls of the source. Rule as the data show it: active = GI50 up to about 1.1 µM and inactive = higher.

Assays:
Assay in all cases: growth of human tumour cells (NCI), 48 h
MOLT-4 = tested on: MOLT-4
NCI-H23 = tested on: NCI-H23
OVCAR-5 = tested on: OVCAR-5
U-251 = tested on: U-251
IGROV-1 = tested on: IGROV-1
LOX IMVI = tested on: LOX IMVI
CCRF-CEM = tested on: CCRF-CEM
A498 = tested on: A498
OVCAR-8 = tested on: OVCAR-8
SN12C = tested on: SN12C
RXF 393 = tested on: RXF 393
SF-268 = tested on: SF-268
HL-60 = tested on: HL-60
A549 = tested on: A549
NCI-H226 = tested on: NCI-H226
UACC-257 = tested on: UACC-257
SK-MEL-5 = tested on: SK-MEL-5

Measured: GI50

COC(=O)C(CC(=O)Nc1ccc(C)cc1)C(=O)C(=O)Nc1c(C(C)C)cccc1C(C)C (configuration not stated)
inactive: MOLT-4 > 100 µM | NCI-H23 > 100 µM | OVCAR-5 > 100 µM | U-251 > 100 µM | IGROV-1 > 100 µM | LOX IMVI > 100 µM | CCRF-CEM > 100 µM | A498 > 100 µM | OVCAR-8 > 100 µM | SN12C > 100 µM | RXF 393 > 100 µM | SF-268 > 100 µM | HL-60 > 100 µM | A549 > 100 µM | NCI-H226 > 100 µM

CN1CCn2c(Br)ccc2C1=O
inactive: MOLT-4 > 100 µM | NCI-H23 > 100 µM | U-251 > 100 µM | IGROV-1 > 100 µM | LOX IMVI > 100 µM | CCRF-CEM > 100 µM | A498 > 100 µM | OVCAR-8 > 100 µM | SN12C > 100 µM | UACC-257 > 100 µM | RXF 393 > 100 µM | SF-268 > 100 µM | HL-60 > 100 µM | A549 > 100 µM | NCI-H226 > 100 µM

Cc1nc2cc3nc4ccccc4c(O)c3cc2s1
inactive: MOLT-4 > 100 µM | NCI-H23 > 100 µM | OVCAR-5 > 100 µM | U-251 > 100 µM | IGROV-1 > 100 µM | CCRF-CEM > 100 µM | A498 > 100 µM | OVCAR-8 > 100 µM | SN12C > 100 µM | UACC-257 > 100 µM | RXF 393 > 100 µM | SF-268 > 100 µM | HL-60 > 100 µM | A549 > 100 µM | SK-MEL-5 > 100 µM | NCI-H226 > 100 µM

COC1C2C=CC(C2)[C@H]1[N+](=O)[O-] (some centres not stated)
inactive: MOLT-4 > 100 µM | NCI-H23 > 100 µM | OVCAR-5 > 100 µM | U-251 > 100 µM | IGROV-1 > 100 µM | LOX IMVI > 100 µM | CCRF-CEM 74.1 µM | A498 > 100 µM | OVCAR-8 56.8 µM | SN12C > 100 µM | UACC-257 > 100 µM | RXF 393 > 100 µM | SF-268 > 100 µM | HL-60 28.8 µM | A549 > 100 µM | SK-MEL-5 > 100 µM | NCI-H226 > 100 µM

O=C(NS(=O)(=O)c1ccccc1)C(Cc1ccccc1)C(Cc1ccccc1)C(=O)NS(=O)(=O)c1ccccc1 (configuration not stated)
inactive: MOLT-4 > 100 µM | NCI-H23 > 100 µM | OVCAR-5 > 100 µM | U-251 > 100 µM | IGROV-1 > 100 µM | LOX IMVI > 100 µM | CCRF-CEM > 100 µM | A498 > 100 µM | OVCAR-8 > 100 µM | SN12C > 100 µM | UACC-257 > 100 µM | RXF 393 > 100 µM | SF-268 > 100 µM | HL-60 > 100 µM | A549 > 100 µM | SK-MEL-5 > 100 µM | NCI-H226 62.4 µM

NC(=S)N/N=C1\C(=O)N(c2cccc([N+](=O)[O-])c2)C(=O)C1C(=O)Nc1cccc([N+](=O)[O-])c1 (configuration not stated)
inactive: MOLT-4 > 100 µM | NCI-H23 > 100 µM | OVCAR-5 > 100 µM | U-251 > 100 µM | IGROV-1 > 100 µM | LOX IMVI > 100 µM | CCRF-CEM > 100 µM | A498 > 100 µM | OVCAR-8 > 100 µM | SN12C > 100 µM | UACC-257 > 100 µM | RXF 393 > 100 µM | SF-268 > 100 µM | HL-60 38.4 µM | A549 > 100 µM | SK-MEL-5 > 100 µM | NCI-H226 > 100 µM

O=S1(=O)c2ccccc2N(O)C2=NCCN21
inactive: MOLT-4 > 100 µM | NCI-H23 > 100 µM | OVCAR-5 > 100 µM | U-251 > 100 µM | IGROV-1 > 100 µM | LOX IMVI > 100 µM | CCRF-CEM > 100 µM | A498 28.6 µM | OVCAR-8 > 100 µM | SN12C > 100 µM | UACC-257 > 100 µM | RXF 393 > 100 µM | SF-268 > 100 µM | HL-60 > 100 µM | A549 > 100 µM | SK-MEL-5 > 100 µM | NCI-H226 25.9 µM

CCOC(=O)C1(c2ccccc2)CCCNCC1 (configuration not stated)
inactive: MOLT-4 45.9 µM | NCI-H23 35.3 µM | OVCAR-5 81.3 µM | U-251 > 100 µM | IGROV-1 > 100 µM | LOX IMVI > 100 µM | CCRF-CEM 28.1 µM | A498 45.8 µM | OVCAR-8 39.4 µM | SN12C 39.4 µM | UACC-257 68.1 µM | RXF 393 > 100 µM | SF-268 > 100 µM | HL-60 98.4 µM | A549 > 100 µM | SK-MEL-5 50.7 µM | NCI-H226 > 100 µM

COc1cc(C(N)=O)c(OC)c(OC)c1OC
inactive: MOLT-4 > 100 µM | NCI-H23 > 100 µM | OVCAR-5 > 100 µM | U-251 > 100 µM | IGROV-1 > 100 µM | LOX IMVI > 100 µM | CCRF-CEM > 100 µM | A498 > 100 µM | OVCAR-8 > 100 µM | SN12C > 100 µM | RXF 393 > 100 µM | SF-268 > 100 µM | HL-60 > 100 µM | A549 > 100 µM | SK-MEL-5 > 100 µM | NCI-H226 > 100 µM

N#CC(C(=O)C(=O)NCCCNC(=O)C(=O)C(C#N)c1ccccc1)c1ccccc1 (configuration not stated)
inactive: MOLT-4 > 100 µM | NCI-H23 > 100 µM | OVCAR-5 > 100 µM | U-251 > 100 µM | IGROV-1 > 100 µM | LOX IMVI > 100 µM | CCRF-CEM > 100 µM | A498 > 100 µM | OVCAR-8 > 100 µM | SN12C > 100 µM | UACC-257 > 100 µM | RXF 393 > 100 µM | SF-268 > 100 µM | HL-60 > 100 µM | A549 > 100 µM | SK-MEL-5 > 100 µM | NCI-H226 > 100 µM

CN(C)CC1CCCC/C1=N/O (configuration not stated)
inactive: MOLT-4 > 100 µM | NCI-H23 > 100 µM | OVCAR-5 > 100 µM | U-251 > 100 µM | IGROV-1 > 100 µM | LOX IMVI > 100 µM | CCRF-CEM > 100 µM | A498 > 100 µM | OVCAR-8 > 100 µM | SN12C > 100 µM | UACC-257 > 100 µM | RXF 393 > 100 µM | SF-268 > 100 µM | HL-60 > 100 µM | A549 > 100 µM | SK-MEL-5 > 100 µM | NCI-H226 > 100 µM

CC(=O)CCn1ncc(Cl)c(Cl)c1=O
inactive: MOLT-4 20.6 µM | NCI-H23 15 µM | OVCAR-5 19.1 µM | IGROV-1 18.7 µM | LOX IMVI 15.6 µM | CCRF-CEM 21.9 µM | A498 24.9 µM | OVCAR-8 23.2 µM | SN12C 14.3 µM | UACC-257 16.5 µM | RXF 393 17.3 µM | SF-268 12.1 µM | HL-60 8.39 µM | A549 23 µM | SK-MEL-5 19.2 µM | NCI-H226 16.7 µM
